Assay results from PubChem BioAssay (NCI).
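Five compound concentrations were applied to cells in 96-well plates for 48 hours; endpoints were derived by simple linear interpolation of the resulting dose-response curve. TGI is the concentration that stops growth completely.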

Key:
Assay in all cases: NCI tumour cell line growth inhibition, 48 h
DMS 273 small cell lung = test system: DMS 273 small cell lung
HOP-18 NSCLC = test system: HOP-18 NSCLC
KM20L2 colon = test system: KM20L2 colon
SNB-78 CNS = test system: SNB-78 CNS
XF 498 CNS = test system: XF 498 CNS
LXFL 529 NSCLC = test system: LXFL 529 NSCLC
RXF-631 renal = test system: RXF-631 renal
MDA-N = test system: MDA-N

SMILES | TGI (DMS 273 small cell lung) | TGI (HOP-18 NSCLC) | TGI (KM20L2 colon) | TGI (SNB-78 CNS) | TGI (XF 498 CNS) | TGI (LXFL 529 NSCLC) | TGI (RXF-631 renal) | TGI (MDA-N)
Cc1cccc(C=NC23CC4CC(CC(C4)C2)C3)c1 | > 100 µM | > 100 µM | > 100 µM | > 100 µM | > 100 µM | – | – | –
COc1ccccc1/C=C(\NC(=O)c1ccccc1)c1nc2ccccc2[nH]1 | – | > 100 µM | > 100 µM | > 100 µM | > 100 µM | 96.9 µM | > 100 µM | –
O=C(CC1(O)CCCCC1)OC1CCCC1 | – | – | – | – | – | – | – | > 100 µM
C[C@@H]1CC2(C[C@@H](C)C3[C@@H](CC4(C)CCCC5C6=CC(O)(CC[C@]34C)OC6=CC(=O)OC5(C)C)O2)OC1=O (some centres not stated) | > 100 µM | > 100 µM | – | – | > 100 µM | > 100 µM | – | –
COC(OC)c1cccnc1C | > 100 µM | > 100 µM | > 100 µM | > 100 µM | > 100 µM | > 100 µM | > 100 µM | –
CC(NC1CCCC[C@@H]1O)c1ccccc1 (some centres not stated) | > 100 µM | > 100 µM | > 100 µM | > 100 µM | > 100 µM | > 100 µM | – | –
Cc1cc(O)c2c(c1)OC1(C)CCC3C(C)(C)CCCC34COC2C14 (configuration not stated) | 27.1 µM | – | 33.3 µM | – | – | 28.2 µM | – | –
CNC(=O)NCCCCC(NC(C)=O)C(=O)NCc1ccccc1 (configuration not stated) | > 100 µM | – | > 100 µM | > 100 µM | > 100 µM | > 100 µM | > 100 µM | –
CCNC(=O)COc1ccc(Cl)c(C)c1 | > 100 µM | > 100 µM | > 100 µM | > 100 µM | – | > 100 µM | – | –
Nc1ccccc1SC(/C=C/NNC1=NC(c2ccccc2)C(c2ccccc2)=NN1)c1ccccc1 (configuration not stated) | 36.8 µM | – | 44.9 µM | 44.3 µM | – | – | – | –
OC(Cc1cccc2ccccc12)CN1CCC(c2ccccc2)CC1 (configuration not stated) | – | – | – | – | – | – | – | 27.3 µM
CN1C2C=CC(=O)C1C(C#N)C2 (configuration not stated) | – | – | – | – | – | – | – | > 100 µM
COc1c2c(c(O)c3c4c(c(C)cc13)C1OC3(C(OC)OC5CC(C)(O)C(OC6CC(C)(O)C(O)C(C)O6)C(C)O5)OC1C(OC)(O4)C31CO1)C(=O)C(O)CC2OC1CC(C)(O)C(OC(C)=O)C(C)O1 (configuration not stated) | < 0.01 µM | – | – | < 0.0448 µM | < 0.01 µM | 0.0889 µM | 4.48 µM | –
NCCOCCOCC(=O)O | > 100 µM | – | > 100 µM | > 100 µM | – | > 100 µM | – | –
C=C1C(=O)O[C@@H]2C[C@@H](C)[C@@H]3C=CC(=O)[C@@]3(C)[C@@H](OC(=O)CCCC(=O)O[C@H]3[C@@H]4C(=C)C(=O)O[C@@H]4C[C@@H](C)[C@@H]4C=CC(=O)[C@]43C)[C@H]12 | – | – | – | – | – | – | – | 0.0431 µM
O=S1(=O)CCC2=CC(C(F)(F)F)=CC(C(F)(F)F)=CN21 | – | 8.27 µM | 5.25 µM | 6.49 µM | 3.42 µM | 1.6 µM | 3.89 µM | 35.7 µM
CCCC(=O)Nc1cc(/C=C/C(=O)N2C[C@@H]3C[C@]34C2=CC(=O)c2[nH]cc(C)c24)n(C)c1 | – | – | – | – | – | – | – | 0.879 µM
O=C(C#Cc1ccccc1)NC/C=C/c1ccccc1 | – | > 100 µM | > 100 µM | 84.1 µM | – | > 100 µM | – | –
Cc1cc(C)nc(NC(=O)COc2ccc(Cl)cc2)c1 | – | – | – | – | – | – | – | > 100 µM
O=C(NCCCN1CCN(CCCNC(=O)Nc2cc(Cl)ccc2Cl)CC1)Nc1cc(Cl)ccc1Cl | > 100 µM | > 100 µM | > 100 µM | > 100 µM | > 100 µM | > 100 µM | – | –
O=C1C(=O)N(c2cc(Cl)ccc2Cl)C(=O)C(=O)C1c1nc2ccccc2s1 | > 100 µM | – | > 100 µM | > 100 µM | > 100 µM | > 100 µM | – | –
CCNc1ccc2c(c1)C(=O)N(OS(C)(=O)=O)C2=O | – | – | – | – | – | – | – | > 100 µM
Cc1nc(Nc2ccc(Cl)cc2)sc1C(=O)Nc1cccc2c(=O)[nH][nH]c(=O)c12 | > 100 µM | – | 41.2 µM | > 100 µM | – | 86.6 µM | – | –
